Here are results for twelve compounds from patent US20070112044A1, “Thiadiazoline derivative” (Kyowa Hakko Kogyo Co., Ltd., priority 2003, published 2007).

For test [1], the system named is HCT 116 human colon carcinoma cells. The test is described as follows: Antiproliferative activity against HCT 116 human colon carcinoma cells (XTT). The format is cell-based. How it is done:
HCT 116 cells (ATCC No.: CCL-247) were placed on a 96-well microtiter plate (Nunc, 167008) at a density of 1×10^3 cells/well. The plate was incubated in a 5% CO2 incubator at 37° C. for 24 hours, and then to the plate was added test compounds diluted stepwise to 100 μL/well in total, and the plate was further incubated in a 5% CO2 incubator at 37° C. for 72 hours. To the culture medium, the XTT (sodium 3′-[1-(phenylaminocarbonyl)-3,4-tetrazolium]-bis(4-methoxy-6-nitro)benzenesulfonic acid hydrate) labeling mixture (Roche Diagnostics, 1465015) was dispensed in 50 μL/well portions, then the plate was incubated in a 5% CO2 incubator at 37° C. for 1 hour, and the absorbance was measured at 490 nm and 655 nm with a microplate spectrophotometer (Bio-Rad, Model 550). The inhibitory activity against cell proliferation was shown as GI50, a concentration of compound at which induces 50% inhibition of cell proliferation.
GI50 calculation method: The value (difference in absorbance) was calculated by subtracting the absorbance at 655 nm from the absorbance at 490 nm of each well. The difference in absorbance obtained from the cells untreated with a test compound was defined as 100%, and compared with the difference in absorbance obtained from the cells treated with the solution of the compound in the known concentration, and thereby the concentration of the compound of 50% inhibition against cell proliferation was calculated to obtain GI50.
(Tetrazolium assays rely on reduction of a dye to a coloured formazan, in cell work by metabolically active cells.)

For test [2], the target named is T1, recombinant human Eg5 motor domain protein (Homo sapiens, UniProt P52732).
T1 construct: A plasmid expressing the motor domain of human Eg5 was constructed; made in house; host or cells: Escherichia coli BL21 (DE3)
T1 sequence (P52732 18-359 limits assumed): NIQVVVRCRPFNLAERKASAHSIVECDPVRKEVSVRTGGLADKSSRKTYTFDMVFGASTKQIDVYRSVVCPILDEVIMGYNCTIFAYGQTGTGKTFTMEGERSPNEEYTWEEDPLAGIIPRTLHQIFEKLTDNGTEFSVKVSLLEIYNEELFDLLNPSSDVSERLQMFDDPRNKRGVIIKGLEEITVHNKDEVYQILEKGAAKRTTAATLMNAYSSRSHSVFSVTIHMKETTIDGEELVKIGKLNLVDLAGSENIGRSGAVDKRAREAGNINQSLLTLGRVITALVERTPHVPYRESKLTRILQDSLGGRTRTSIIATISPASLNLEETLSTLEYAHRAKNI
Briefly: Eg5 enzyme inhibition test (2), ATPase activity. The format is biochemical. The settings on record: 30° C. for 30 minutes, concentration-dependent inhibition. How it is done:
A recombinant human Eg5 motor domain protein was prepared by referring to the literature [Biochemistry, Vol. 35, p. 2365 (1996)]. A plasmid expressing the motor domain of human Eg5 was constructed, and transformed into Escherichia coli BL21 (DE3). The transformant was cultured at 25° C, and when the OD600 reached 0.74, isopropyl-β-D-thiogalactoside was added at a final concentration of 0.5 mmol/L. The transformant was further cultured for 4 hours, and then the culture medium was centrifuged to collect the cells. The cells were suspended in a buffer and ultrasonicated, and then the sonicated solution was centrifuged to recover the supernatant. The supernatant was purified by cation exchange column chromatography to obtain a partially purified sample. Furthermore, the partially purified sample was purified by gel filtration column chromatography to obtain a finally purified sample.
Measurement of the ATPase activity of Eg5 was carried out by referring to the literatures [EMBO Journal, Vol. 13, p. 751 (1994); Proc. Natl. Acad. Sci. USA, Vol. 89, p. 4884 (1992)]. The following two kinds of solutions were prepared: Solution A consisting of 25 mmol/L piperazine N,N′-bis(ethanesulfonate) (PIPES)/KOH (pH 6.8), 1 mmol/L ethylene glycol-bis(2-aminoethyl ether)tetraacetic acid (EGTA), 2 mmol/L MgCl2, 1 mmol/L dithiothreitol (DTT), 5 μmol/L paclitaxel, 167 μg/mL bovine serum albumin (BSA), 41.7 μg/mL tubulin (Cytoskeleton, Catalog No. TL238), 333 μmol/L MESG substrate (2-amino-6-mercapto-7-methylpurine riboside) (Molecular Probes, Catalog Number E-6646), 1.67 U/mL purine nucleoside phosphorylase (Molecular Probe, Catalog No. E-6646) and 1.33 μg/mL of the human Eg5 motor domain purified sample, and Solution B consisting of 25 mmol/L piperazine N,N′-bis(ethanesulfonate) (PIPES)/KOH (pH 6.8), 1 mmol/L ethylene glycol-bis(2-aminoethyl ether)tetraacetic acid (EGTA), 2 mmol/L MgCl2, 1 mmol/L dithiothreitol (DTT), 5 μmol/L paclitaxel and 2.5 mmol/L ATP. Solution A was dispensed into each well of a 96-well plate as 45 μL portions. Solution B was used to serially dilute a test compound. The diluted test compound solutions in a volume of 30 μL were mixed with Solution A added beforehand in each well of the 96-well plate to start the enzymatic reaction. The enzymatic reaction was performed at 30° C. for 30 minutes. Absorbance at 360 nm, which serves as an index of the ATPase activity, was measured using a plate reader (Molecular Device, SpectraMax 340PC^384). The absorbance observed in the presence of Eg5 and absence of the test compound was defined 100%, and the absorbance observed in the absence of both Eg5 and the test compound was defined 0%. The relative activity was calculated to calculate IC50 value.

Setting [3] is: HCT 116 cells, 72 hours incubation, XTT, 50% inhibition of cell proliferation, read-out: GI50.

Read-outs that look alike come from different tables or passages of the source.

In general, GI50 refers to the concentration that inhibits growth by half. As a reminder, the IC50 is the point on the concentration scale where inhibition reaches its midpoint. As to `CC(=O)N1N=C(c2ccco2)SC1(C)c1ccccc1` (stereo not drawn) [Compound 1], the GI50 in test [1] (HCT-116, 72 h) is 530 nM. The IC50 in test [2] is not above 10000 nM.

`CC(=O)N1N=C(c2cccn2C(=O)OC(C)(C)C)SC1(C)c1ccccc1` (stereo not drawn) [Compound 5]: in test [1] (setting [3]), the GI50 came to 170 nM. The IC50 in test [2] was not above 10000 nM.

Take `CC(=O)N1N=C(c2ccccc2)SC1(CNS(C)(=O)=O)c1ccccc1` (stereo not drawn) [Compound 10]: the GI50 in test [1] (setting [3]) was 180 nM. The half-maximal inhibitory concentration (IC50) in test [2] was not above 10000 nM.

Turning to `CC(=O)N1N=C(C#CC(C)(C)C)SC1(CNS(C)(=O)=O)c1ccccc1` (stereo not drawn) [Compound 20], the GI50 in test [1] (setting [3]) was determined as 200 nM. Also, the IC50 in test [2] was not above 10000 nM.

For `CC(=O)N1N=C(c2ccccc2F)SC1(C)c1ccccc1` (stereo not drawn) [Compound 22], the GI50 in test [1] (setting [3]) was 83 nM. Moreover, the IC50 in test [2] was not above 10000 nM.

As to `CC(=O)N1N=C(c2cccc(F)c2)SC1(C)c1ccccc1` (stereo not drawn) [Compound 24], the GI50 in test [1] (setting [3]) stood at 220 nM. The IC50 in test [2] is not above 10000 nM.

Consider `CC(=O)N1N=C(C(=O)NC(C)(C)C)SC1(C)c1ccccc1` (stereo not drawn) [Compound 44], for which, in test [1] (setting [3]), the GI50 is 410 nM. In test [2], the IC50 was not above 10000 nM.

Consider `CC(=O)N1N=C(c2ccccc2F)SC1(CNS(=O)(=O)CCN)c1ccccc1` (stereo not drawn) [Compound 49], for which the GI50 in test [1] (setting [3]) is less than 100 nM. Besides, in test [2], the IC50 is not above 10000 nM.

`CC(=O)N1N=C(c2ccccc2F)SC1(CNC(=O)CN)c1ccccc1` (stereo not drawn) [Compound 55]: the GI50 in test [1] (setting [3]) is less than 100 nM. Besides, in test [2], the IC50 is not above 10000 nM.

As for `CC(=O)N1N=C(c2ccccc2F)SC1(CCNC(=O)CCCN(C)C)c1ccccc1` (stereo not drawn) [Compound 61], the GI50 in test [1] (setting [3]) was less than 100 nM. Further, in test [2], the IC50 is not above 10000 nM.

Regarding `CC(=O)N1N=C(c2ccccc2F)SC1(CCCN1CCN(C)CC1)c1ccccc1` (stereo not drawn) [Compound 62], the GI50 in test [1] (setting [3]) is 160 nM. In test [2], the IC50 was not above 10000 nM.

As to `CC(=O)N1N=C(C(=O)NC(C)(C)C)SC1(CNS(=O)(=O)CCN(C)C)c1ccccc1` (stereo not drawn) [Compound 68], the GI50 in test [1] (setting [3]) is 190 nM. In addition, in test [2], the IC50 is not above 10000 nM.
